Legend:
CT26 cells [1] = experiment: Anti-cancer vaccination with dying CT26 cells and rechallenge with live tumor cells; format: in vivo, mice; conditions: doxorubicin-treated CT26, rechallenge with live cells seven days later
Protocol: (§1) FIG. 3: Identification of AT P release as a limiting factor of anti-cancer vaccination by dying CT 26 cells. FIG. 3a-b Idem as in FIGS. 1a and b, but using the mouse colon cancer CT26 exposed to doxorubicin. Data of one representative experiment out of three are depicted. FIG. 3. c-d. […] Mice were immunized with PBS or dying CT26 tumor cells. Dying CT26 were first treated with doxorubicin for 24 hours and were then incubated with antimycin A/deoxyglucose (A/D) for 20 min. Cells were washed after A/D exposure and before subcutaneous inoculation (c). Alternatively, dying CT26 were inoculated alone or together with oxiATP (d). Seven days later, mice (15 per group in a total of 3 distinct experiments) were inoculated with live syngeneic tumor cells and tumor growth was monitored. * p<0.05.
Anti cancer vaccination was assessed using a previously described setting (Casares et al., 2005; Obeid et al., 2007). CT26 cells were cultured with either PBS or 20 μM doxorubicin, and MCA205 with either PBS or 1 μM mitoxantrone for 24 h. All these treatments led to ˜50% of Annexin V^+ DAPI^+ cells, as assessed by FACS analysis at 24 hours. After careful washes, cells were resuspended in sterile PBS. […] Tumor growth was then monitored weekly.

[2] = test system: T cell priming for IFNγ production; experiment: Priming assay: dying EG7 cells injected into the footpad, IFNγ secretion of restimulated popliteal lymph node cells; format: in vivo, mice
Protocol: 1.10^6 CT26, EG7, or B16F10 cells were either left untreated or treated with doxorubicin (20 μM) or oxaliplatin (5 μg/ml) for 24 h. Cells were then injected into the footpad of syngenic mice. In some experiments, 20 or 100 μg of IL-1Ra (Anakinra) or 250 ng of recombinant murine IL-1β (or 250 ng of IL-6 or 50 ng of IL-12) was injected along with dying tumor cells into the footpad of mice. Alternatively, DC were cocultured with EG7 cells for 2 hours, followed by the purification of CD11c^+ cells with anti-CD11c mAb coupled to magnetic beads (Miltenyi Biotec, Paris, France) and injection of these purified DC into the footpad. Five days later, gangliocytes from popliteal lymph nodes were harvested, seeded in 96 U-well plates (3.10^5 cells per well), and restimulated with 1 mg/ml OVA protein. Restimulation with MCA205 or CT26 cells was performed using 3×10^4 tumor cells killed by 5 min heating at 42° C. followed by 1 cycle of freezing/thawing in liquid nitrogen. For B16F10, restimulation was achieved using gp100 peptide as previously described (Overwijk et al., 1998). As a positive control of T cell priming, mice were injected with OVA protein (1 mg) (or gp100 for B16F10) and the association of CpG (10 μg) and Poly I:C (5 μg). For CT26 priming experiments, cell lysate plus LPS (250 ng) was used as a positive control. Supernatants were harvested 72 hours later, and IFNγ secretion was assessed by ELISA. Alternatively, cells were stimulated with PMA (10 ng/ml) and ionomycin (1 μg/ml) for 1 h, followed by the addition of brefeldin A (10 μg/ml for 6 h at 37° C.) (Apetoh et al., 2007), surface staining with Abs specific for CD3, CD4 or CD8, fixation and permeabilization (Cytofix/cytoperm kit) and then labeled with antibodies specific for IFNγ. Immunofluorescence was analyzed on a LSRII flow cytometer (BD Biosciences) with FACSDiva software.

[3] = test system: T cell priming for IFNγ production; experiment: Priming assay with dying CT26 cells, restimulation with CT26 or MCA205 tumor lysate, IFNγ production; format: in vivo; conditions: IL-1Ra 100 μg co-inoculated, WT mice
Protocol: FIG. 14: The immunogenicity of cell death requires active IL-1β. Mice were immunized with PBS or dying CT26 tumor cells treated with doxorubicin or freeze thawing and LPS. Dying CT26 were co-inoculated together with IL-1Ra (100 μg) into the […] of WT mice. Five days later, mice (n=5 mice/group) were sacrificed to harvest popliteal lymph nodes for in vitro restimulation with CT26 or MCA205 tumor lysate and assessment of IFNγ production. *p<0.05.
1.10^6 CT26, EG7, or B16F10 cells were either left untreated or treated with doxorubicin (20 μM) or oxaliplatin (5 μg/ml) for 24 h. Cells were then injected into the footpad of syngenic mice. In some experiments, 20 or 100 μg of IL-1Ra (Anakinra) or 250 ng of recombinant murine IL-1β (or 250 ng of IL-6 or 50 ng of IL-12) was injected along with dying tumor cells into the footpad of mice. Alternatively, DC were cocultured with EG7 cells for 2 hours, followed by the purification of CD11c^+ cells with anti-CD11c mAb coupled to magnetic beads (Miltenyi Biotec, Paris, France) and injection of these purified DC into the footpad. […] Supernatants were harvested 72 hours later, and IFNγ secretion was assessed by ELISA. […] Immunofluorescence was analyzed on a LSRII flow cytometer (BD Biosciences) with FACSDiva software.

CT26 tumors = experiment: Chemotherapy of CT26 tumors established in mice; format: in vivo; conditions: doxorubicin i.t.; 100 μg on day 0 and day 2, WT mice
Protocol: FIG. 17. The anti-cancer activity of oxaliplatin depends on P2X7 and the NALP3 inflammasome. FIG. 17a,b,c. Therapeutic efficacy of oxaliplatin on established tumors depends on the integrity of the immune system on the P2X7/NALP3/casp-1 axis. EL4 thymoma tumors were established in syngenic mice bearing the indicated genotypes (a-c) or injected with anti-CD8 antibody (a). When the tumor reached 70-90mm^2 in size, mice were either left untreated or were treated with oxaliplatin. Each treatment group included 5-6 mice (X±SEM), and each experiment was repeated three times with similar results. * p<0.05. d. Caspase 1 is required for the immune response promoted by oxaliplatin chemotherapy. EG7 tumors established in the thigh were treated with one systemic injection of oxaliplatin. Inguinal lymph node cells were harvested 5 days later, and the gangliocytes were restimulated in vitro. IFNγ secretion was assessed by ELISA. Results (means of triplicates ±SEM, n=3) are representative of one typical experiment out of three. ^*P<0.01. FIG. 17d. […] The time to metastatic progression was analyzed in 225 women with non-metastatic breast cancer who received adjuvant chemotherapy with anthracylines.
Wild type or loss-of-function C57BL/6 mice were injected s.c. with 10^6 EL4 cells into the right flank. […] The tumor surface was monitored using a caliper. […]

EL4 thymoma tumors = experiment: Chemotherapy of EL4 tumors established in mice; format: in vivo; conditions: co-treatment, data not shown
Protocol: FIG. 17. The anti-cancer activity of oxaliplatin depends on P2X7 and the NALP3 inflammasome. FIG. 17a,b,c. Therapeutic efficacy of oxaliplatin on established tumors depends on the integrity of the immune system on the P2X7/NALP3/casp-1 axis. EL4 thymoma tumors were established in syngenic mice bearing the indicated genotypes (a-c) or injected with anti-CD8 antibody (a). When the tumor reached 70-90mm^2 in size, mice were either left untreated or were treated with oxaliplatin. Each treatment group included 5-6 mice (X±SEM), and each experiment was repeated three times with similar results. * p<0.05. d. Caspase 1 is required for the immune response promoted by oxaliplatin chemotherapy. EG7 tumors established in the thigh were treated with one systemic injection of oxaliplatin. Inguinal lymph node cells were harvested 5 days later, and the gangliocytes were restimulated in vitro. IFNγ secretion was assessed by ELISA. Results (means of triplicates ±SEM, n=3) are representative of one typical experiment out of three. ^*P<0.01. FIG. 17d. The efficacy of anthracyclines against established colon cancer is dependent on IL-1β. CT26 tumors established for 10 days in WT mice were treated with one local injection of doxorubicin in the absence or presence of neutralizing anti-IL-1β Ab (n=10/group, *p<0.05). FIG. 17e. A single-nucleotide polymorphism (SNP) in P2X7 (rs3751143) affects the long-term efficacy of conventional anti-cancer therapy in breast cancer patients. Comparative Kaplan-Meier estimates of time to metastasis in two groups of patients bearing the normal (Glu496Glu) or loss-of-function (Glu496Ala) P2X7 alleles. The time to metastatic progression was analyzed in 225 women with non-metastatic breast cancer who received adjuvant chemotherapy with anthracylines.
Wild type or loss-of-function C57BL/6 mice were injected s.c. with 10^6 EL4 cells into the right flank. Alternatively, wild-type BALB/c mice were injected with 5.10^5 CT26 cells into the right flank. Mice were then randomly assigned to treatment groups of 4-6 mice each. The tumor surface was monitored using a caliper. When tumor size reached 70-90 mm^2 for EL4 (9-12 days post-injection) or 60-80 mm^2 for CT26 (8-10 days post-injection), mice received chemotherapy (Apetoh et al., 2007). Mice bearing EL4 tumors were injected with oxaliplatin (5 mg/kg i.p), while mice bearing CT26 tumors were injected with doxorubicin (50 μl, 4 mM i.t). In some experiments, CT26 tumor-bearing mice received two injections (on day 0 and day 2 after the commencement of chemotherapeutic treatment) of IL-1Ra (McIntyre et al., 1991) (100 μg), anti-IL-1 antibody (100 μg) or hamster serum as a control.

CT26 cells [4] = experiment: Cell death induction for vaccination, FACS analysis of Annexin V+ DAPI+ cells; format: cell-based, mouse; conditions: CT26, 20 μM doxorubicin, 24 hours
Protocol: Anti cancer vaccination was assessed using a previously described setting (Casares et al., 2005; Obeid et al., 2007). CT26 cells were cultured with either PBS or 20 μM doxorubicin, and MCA205 with either PBS or 1 μM mitoxantrone for 24 h. All these treatments led to ˜50% of Annexin V^+ DAPI^+ cells, as assessed by FACS analysis at 24 hours. After careful washes, cells were resuspended in sterile PBS. CT26 cells were incubated in the presence or in the absence of antimycin A and deoxyglucose (2 μg/ml and 30 mM, respectively) for 20 min, or in the presence or in the absence of Oxi-ATP ([…]). After 3 washes, 3×10^6 dying CT26 cells (or 3×10^5 MCA205 cells) were injected subcutaneously into the left flank of mice. In some experiments, 100 μg of IL-1Ra (Anakinra) was injected along with the dying cells. Seven days later, mice were rechallenged into the right flank with 5×10^5 live CT26 cells (or, alternatively, 3.10^4 live MCA205 cells). Tumor growth was then monitored weekly.

CT26 colon cancer cells = experiment: ATP assays on doxorubicin-treated tumor cells; format: cell-based, mouse; conditions: CT26, doxorubicin 20 μM
Protocol: as §1
Plates were read in a Fluostar luminometer (BMG Labtech).

CD3+ CD8+ T cells = experiment: In vitro stimulation of CD8+ T-cells with anti-CD3 and anti-CD28 mAb plus cytokines; format: cell-based, mouse; conditions: CD3 plus CD28 cross-linking; 10 ng/ml IL-12p70, 100 ng/ml IL-1β, IL-6, TNFα
Protocol: (§2) FIG. 15. IL-1β-dependent CTL priming by dying tumor cells in vitro and in vivo. FIG. 15a. MyD88 is required at the level of the host but not that of the APC. DC from WT mice were first loaded with antigen (OVA holoprotein with C/P adjuvant, live or oxaliplatin-treated EG7 cells) and then injected into the footpad of into WT or MyD88^−/− recipients (n=6 mice/group). Five days later, the local immune response was measured as in FIG. 2d,e. Results of one typical experiment out of three are depicted. FIG. 15b. Casp-1 and IL-1β-dependent OT-I priming in vitro. The differentiation of IFNγ producing CD8^+ OT-1 cells was induced by incubating naïve OVA-specific TCR transgenic OT-1 lymphocytes with syngeneic BM-DC (derived from WT or Casp-1^−/− mice) that were loaded with oxaliplatin-treated EG7 for 2 days in vitro. […] Exogenous addition of rIL-1β (100 ng/ml) or IL-12 (10 ng/ml) to cocultures of Casp-1^−/− DC loaded with dying tumor cells and incubated with OT1 restored T cell priming. […] FIG. 15c. Specific and direct polarizing effects of IL-1β on T lymphocytes in vitro. Purified CD3^+ CD8^+ T cells derived from naïve WT mice were stimulated with anti-CD3 and anti-CD28 mAb for 5 days in the presence of the indicated cytokines (10 ng/ml for IL-12p70, 100 ng/ml for IL-1β, IL-6 and TNFα) -and IFNγ production was measured as in FIG. 3b. FIG. 15d. […]

OT-1 CD8+ T cells = experiment: In vitro stimulation of OT-1 cells by BM-DC loaded with oxaliplatin-treated EG7; format: cell-based, mouse; conditions: rIL-1β 100 ng/ml or IL-12 10 ng/ml added to cocultures
Protocol: as §2

## Nc1ncnc2c1ncn2[C@@H](C=O)O[C@@H](C=O)COP(=O)(O)OP(=O)(O)OP(=O)(O)O [oxiATP, 2′,3′-dialdehyde derivative of ATP]
CT26 cells [1]
  efficacy of vaccination with dying tumor cells: prevent the efficacy of vaccination
[2]; OVA with PolyI:C+CpG in presence of oxiATP
  T cell priming triggered by OVA protein plus adjuvant: did not affect T cell priming
[2]; cells admixed with oxiATP, footpad, C57Bl/6 mice
  T cell priming by oxaliplatin-treated EG7 cells: abolished T cell priming

## IL-1Ra: recombinant IL-1 receptor antagonist, Kineret Anakinra (Amgen)
[3]
  tumor-specific IFNγ response of T cells primed by dying CT26 cells: abolished
CT26 tumors
  effect on the response of CT26 tumors to anthracyclines: blunted the response
EL4 thymoma tumors
  effect on the response of EL4 tumors to oxaliplatin: blunted the response
[2]; IL-1Ra co-injected into the footpad
  T cell priming in vivo by oxaliplatin-treated EG7 cells (IFNγ after restimulation with OVA): failed to prime T cells in vivo
[2]; IL-1Ra co-injected, restimulation with PMA-ionomycin, flow cytometry
  cytoplasmic IFNγ staining of CD3+CD8+ T lymphocytes: failed to stain positively for cytoplasmic IFNγ

## COc1cccc2c1C(=O)c1c(O)c3c(c(O)c1C2=O)C[C@@](O)(C(=O)CO)C[C@@H]3O[C@H]1C[C@H](N)[C@H](O)[C@H](C)O1 [doxorubicin]
CT26 cells [4]
  Annexin V+ DAPI+ cells: ~50%
CT26 colon cancer cells
  release of ATP: released ATP

B1: IL-1β: recombinant mouse IL-1β from R&D Systems (protein)
chain: VPIRQLHYRLRDEQQKSLVLSDPYELKALHLNGQNINQQVIFSMSFVQGEPSNDKIPVALGLKGKNLYLSCVMKDGTPTLQLESVDPKQYPKKKMEKRFVFNKIEVKSKVEFESAEFPNWYISTSQAEHKPVFLGNNSGQDIIDFTMESVSS
CD3+ CD8+ T cells
  IFNγ production by naive CD3+CD8+ splenic T cells: failed to produce IFNγ, unless IL-113
OT-1 CD8+ T cells
  priming capacity of Casp-1−/− DC for OT-1 cells (IFNγ): restored the priming capacity
[2]; cytokine co-injected with oxaliplatin-treated EG7: rIL-1β 250 ng, rIL-12 50 ng, rIL-6 250 ng per footpad
  T cell priming in Nalp3−/− or Casp1−/− mice: restored deficient T cell priming

From patent publication US20110229411A1, “USE OF P2X7 PATHWAY FOR ASSESSING THE SENSITIVITY OF A SUBJECT TO A CANCER TREATMENT” (INSTITUT GUSTAVE ROUSSY, priority 2008, published 2011)
